By IC50 is commonly meant the midpoint of a concentration-inhibition curve. Usually Ki stands for a dissociation constant, usually derived from enzyme kinetics or from competition with a known ligand.

The target of data set [1] is T1, P2Y purinoceptor 6 (Homo sapiens, UniProt Q15077). Put plainly: Antagonist activity at human P2Y6R expressed in human 1321N1 cells assessed as inhibition of […] calcium mobilization by FLIPR assay. The class given is cell-based. (In general: A change in cytosolic calcium serves as a functional read-out for many receptors and channels.)
The target of data set [2] is P2Y purinoceptor 6 (Mus musculus, UniProt Q9ERK9). The experiment in a line: Antagonist activity at mouse P2Y6R expressed in human 1321N1 cells assessed as inhibition of […] calcium mobilization by FLIPR assay. The class given is cell-based.
A further data set has as its target D(1B) dopamine receptor (Homo sapiens, UniProt P21918). Put plainly: Binding affinity to dopamine 5 receptor (unknown origin).
In data set [3] the target is P2Y purinoceptor 1 (Meleagris gallopavo) (UniProt P49652). Put plainly: Antagonist activity at Meleagris P2Y1R expressed in human 1321N1 cells assessed as inhibition of […] calcium mobilization at 100 uM by FLIPR assay relative to control. The class given is cell-based. More on the design: scale not given: the % may be the effect or the level left.
Data set [4] addresses P2Y purinoceptor 2 (Homo sapiens) (UniProt P41231). The experiment in a line: Antagonist activity at human P2Y2R expressed in human 1321N1 cells assessed as inhibition of […] calcium mobilization at 100 uM by FLIPR assay relative to control. Type of data set: cell-based. Details: scale not given: the % may be the effect or the level left.
The target in data set [5] is P2Y purinoceptor 4 (Homo sapiens) (UniProt P51582). Put plainly: Antagonist activity at human P2Y4R expressed in human 1321N1 cells assessed as inhibition of […] calcium mobilization at 100 uM by FLIPR assay relative to control. Type of data set: cell-based. Details: scale not given: the % may be the effect or the level left.
Data set [6] has as its target P2Y purinoceptor 6 (Mus musculus) (UniProt Q9ERK9). The experiment in a line: Antagonist activity at mouse P2Y6R expressed in human 1321N1 cells assessed as inhibition of […] calcium mobilization at 20 uM by FLIPR assay relative to control. Type of data set: cell-based. Details: scale not given: the % may be the effect or the level left.
Another data set deals with HEK293. Put plainly: Cytotoxicity against HEK293 cells assessed as reduction in cell viability at 100 uM measured after 24 hrs by MTT assay relative to control. Type of data set: toxicity, cell-based. The settings on record: human, hek293, 24 h. (In general: Tetrazolium assays rely on reduction of a dye to a coloured formazan, in cell work by metabolically active cells.)

The target of data set [7] is T2, Alpha-2C adrenergic receptor (Homo sapiens, UniProt P18825).
T2 sequence (P18825 whole entry): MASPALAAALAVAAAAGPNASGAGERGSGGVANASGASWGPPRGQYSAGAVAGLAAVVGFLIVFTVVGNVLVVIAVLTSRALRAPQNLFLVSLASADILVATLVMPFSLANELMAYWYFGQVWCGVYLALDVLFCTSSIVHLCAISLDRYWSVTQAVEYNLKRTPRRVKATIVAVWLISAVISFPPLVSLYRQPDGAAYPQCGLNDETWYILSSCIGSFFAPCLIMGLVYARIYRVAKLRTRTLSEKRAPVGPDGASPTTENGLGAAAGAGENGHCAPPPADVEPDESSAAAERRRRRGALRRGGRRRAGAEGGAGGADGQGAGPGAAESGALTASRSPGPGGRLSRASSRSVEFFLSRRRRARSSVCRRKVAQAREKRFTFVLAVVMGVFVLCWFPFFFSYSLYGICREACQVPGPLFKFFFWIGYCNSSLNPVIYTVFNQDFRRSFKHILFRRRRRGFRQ
The experiment in a line: Binding affinity to adrenergic alpha 2c receptor (unknown origin).

Data set [8] addresses Sigma non-opioid intracellular receptor 1 (Homo sapiens, UniProt Q99720). The experiment in a line: Binding affinity to sigma 1 receptor (unknown origin).
In the next data set the target is Histamine H1 receptor (Homo sapiens, UniProt P35367). Put plainly: Binding affinity to histamine H1 receptor (unknown origin).
Data set [9] addresses Beta-3 adrenergic receptor (Homo sapiens, UniProt P13945). The experiment in a line: Binding affinity to adrenergic beta 3 (unknown origin).
The target of data set [10] is 5-hydroxytryptamine receptor 2A (Homo sapiens, UniProt P28223). Put plainly: Binding affinity to 5-HT2A (unknown origin).
The target of data set [11] is T1, P2Y purinoceptor 6. Put plainly: Antagonist activity at human P2Y6R expressed in human 1321N1 cells assessed as inhibition of […] calcium mobilization at 100 uM by FLIPR assay relative to control. Type of data set: cell-based. Details: scale not given: the % may be the effect or the level left.
The target in the next data set is D(3) dopamine receptor (Homo sapiens, UniProt P35462). Put plainly: Binding affinity to dopamine 3 receptor (unknown origin).
The target in data set [12] is Sigma intracellular receptor 2 (Homo sapiens, UniProt Q5BJF2). Put plainly: Binding affinity to sigma 2 receptor (unknown origin).
Chain of Sigma intracellular receptor 2 (Q5BJF2 whole entry): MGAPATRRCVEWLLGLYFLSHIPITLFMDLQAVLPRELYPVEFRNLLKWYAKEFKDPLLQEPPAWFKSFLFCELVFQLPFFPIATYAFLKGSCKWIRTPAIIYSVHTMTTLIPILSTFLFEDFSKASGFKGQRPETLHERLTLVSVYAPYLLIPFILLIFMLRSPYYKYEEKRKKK

T1 sequence (Q15077 whole entry): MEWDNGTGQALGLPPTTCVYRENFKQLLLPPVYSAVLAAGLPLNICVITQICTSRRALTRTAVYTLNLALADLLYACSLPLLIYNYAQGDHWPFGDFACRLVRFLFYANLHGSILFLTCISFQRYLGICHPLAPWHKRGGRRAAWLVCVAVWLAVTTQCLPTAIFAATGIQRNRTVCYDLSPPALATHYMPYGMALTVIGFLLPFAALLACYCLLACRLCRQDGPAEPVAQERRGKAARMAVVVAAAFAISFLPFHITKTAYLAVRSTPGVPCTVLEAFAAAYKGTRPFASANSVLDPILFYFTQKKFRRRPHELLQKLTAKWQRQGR
Chain of P2Y purinoceptor 4 (Homo sapiens) (P51582 whole entry): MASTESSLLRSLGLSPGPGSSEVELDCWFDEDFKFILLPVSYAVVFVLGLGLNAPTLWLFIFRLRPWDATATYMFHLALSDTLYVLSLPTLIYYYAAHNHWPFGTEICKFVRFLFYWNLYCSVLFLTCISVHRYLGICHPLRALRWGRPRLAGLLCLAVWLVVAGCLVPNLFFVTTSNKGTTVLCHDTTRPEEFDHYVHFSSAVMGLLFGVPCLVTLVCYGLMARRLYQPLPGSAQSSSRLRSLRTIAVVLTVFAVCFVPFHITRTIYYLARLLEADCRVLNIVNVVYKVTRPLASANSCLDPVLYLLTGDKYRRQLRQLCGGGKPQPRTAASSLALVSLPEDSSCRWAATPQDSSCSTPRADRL
Chain of P2Y purinoceptor 6 (Mus musculus, UniProt Q9ERK9) (Q9ERK9 whole entry): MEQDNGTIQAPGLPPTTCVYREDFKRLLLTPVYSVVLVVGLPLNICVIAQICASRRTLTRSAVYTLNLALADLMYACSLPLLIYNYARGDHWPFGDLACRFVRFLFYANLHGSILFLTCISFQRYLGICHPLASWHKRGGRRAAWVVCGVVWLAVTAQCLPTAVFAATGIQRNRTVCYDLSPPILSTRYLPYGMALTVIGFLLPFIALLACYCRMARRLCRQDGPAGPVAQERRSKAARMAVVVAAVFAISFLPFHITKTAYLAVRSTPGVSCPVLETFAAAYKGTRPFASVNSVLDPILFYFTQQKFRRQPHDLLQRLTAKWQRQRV
Chain of P2Y purinoceptor 1 (Meleagris gallopavo) (P49652 whole entry): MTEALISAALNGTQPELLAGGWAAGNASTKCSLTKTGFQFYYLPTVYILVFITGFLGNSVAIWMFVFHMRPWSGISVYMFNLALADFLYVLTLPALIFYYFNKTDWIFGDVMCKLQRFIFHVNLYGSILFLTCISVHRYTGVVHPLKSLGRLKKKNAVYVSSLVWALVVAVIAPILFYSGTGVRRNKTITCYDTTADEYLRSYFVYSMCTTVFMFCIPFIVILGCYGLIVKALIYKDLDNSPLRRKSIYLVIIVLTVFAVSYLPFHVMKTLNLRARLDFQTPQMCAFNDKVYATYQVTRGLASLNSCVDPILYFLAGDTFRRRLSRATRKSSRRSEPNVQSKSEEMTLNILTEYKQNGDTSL
Chain of P2Y purinoceptor 2 (Homo sapiens) (P41231 whole entry): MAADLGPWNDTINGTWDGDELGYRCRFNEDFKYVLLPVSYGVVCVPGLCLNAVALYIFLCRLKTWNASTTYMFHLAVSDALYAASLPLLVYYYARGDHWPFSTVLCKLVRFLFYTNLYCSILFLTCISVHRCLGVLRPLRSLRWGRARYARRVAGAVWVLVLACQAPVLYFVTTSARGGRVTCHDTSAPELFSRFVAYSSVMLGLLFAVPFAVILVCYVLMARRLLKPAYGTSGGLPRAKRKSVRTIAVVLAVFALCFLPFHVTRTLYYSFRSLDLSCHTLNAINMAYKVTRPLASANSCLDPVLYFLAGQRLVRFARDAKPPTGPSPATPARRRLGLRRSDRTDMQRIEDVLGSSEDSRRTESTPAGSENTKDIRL
Chain of D(1B) dopamine receptor (P21918 whole entry): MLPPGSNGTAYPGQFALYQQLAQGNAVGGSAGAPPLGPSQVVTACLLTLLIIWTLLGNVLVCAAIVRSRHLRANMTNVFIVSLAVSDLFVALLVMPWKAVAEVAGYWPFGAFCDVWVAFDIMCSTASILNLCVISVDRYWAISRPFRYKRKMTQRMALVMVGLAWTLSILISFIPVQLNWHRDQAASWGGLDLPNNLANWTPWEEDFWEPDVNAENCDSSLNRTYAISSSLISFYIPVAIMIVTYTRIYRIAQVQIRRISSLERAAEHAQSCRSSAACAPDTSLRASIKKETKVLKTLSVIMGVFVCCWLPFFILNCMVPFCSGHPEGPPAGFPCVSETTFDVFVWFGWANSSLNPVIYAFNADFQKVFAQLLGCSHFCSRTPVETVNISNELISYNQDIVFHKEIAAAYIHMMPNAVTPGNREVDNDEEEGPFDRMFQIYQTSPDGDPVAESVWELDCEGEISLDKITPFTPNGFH
Chain of Sigma non-opioid intracellular receptor 1 (Q99720 whole entry): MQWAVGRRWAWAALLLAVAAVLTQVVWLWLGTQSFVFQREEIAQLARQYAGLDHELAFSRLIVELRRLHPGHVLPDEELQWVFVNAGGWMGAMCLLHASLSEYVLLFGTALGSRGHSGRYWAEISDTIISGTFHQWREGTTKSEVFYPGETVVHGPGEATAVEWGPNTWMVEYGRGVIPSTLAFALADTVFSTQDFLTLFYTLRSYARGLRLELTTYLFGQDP
Chain of 5-hydroxytryptamine receptor 2A (P28223 whole entry): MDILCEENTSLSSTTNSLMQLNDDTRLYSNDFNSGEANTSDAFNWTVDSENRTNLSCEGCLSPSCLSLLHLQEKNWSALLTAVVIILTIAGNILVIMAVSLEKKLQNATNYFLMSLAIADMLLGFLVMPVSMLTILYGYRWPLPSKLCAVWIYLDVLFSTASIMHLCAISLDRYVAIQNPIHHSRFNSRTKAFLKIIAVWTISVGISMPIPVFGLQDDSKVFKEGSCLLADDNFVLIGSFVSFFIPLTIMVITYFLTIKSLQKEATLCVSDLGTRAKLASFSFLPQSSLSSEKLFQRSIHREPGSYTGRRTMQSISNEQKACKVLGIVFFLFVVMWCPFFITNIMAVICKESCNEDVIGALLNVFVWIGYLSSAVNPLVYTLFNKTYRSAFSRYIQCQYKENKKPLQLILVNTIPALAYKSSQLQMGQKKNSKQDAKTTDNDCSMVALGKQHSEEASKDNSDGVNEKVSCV
Chain of P2Y purinoceptor 6 (Mus musculus) (Q9ERK9 whole entry): as the sequence (Q9ERK9 whole entry) above
Chain of Histamine H1 receptor (P35367 whole entry): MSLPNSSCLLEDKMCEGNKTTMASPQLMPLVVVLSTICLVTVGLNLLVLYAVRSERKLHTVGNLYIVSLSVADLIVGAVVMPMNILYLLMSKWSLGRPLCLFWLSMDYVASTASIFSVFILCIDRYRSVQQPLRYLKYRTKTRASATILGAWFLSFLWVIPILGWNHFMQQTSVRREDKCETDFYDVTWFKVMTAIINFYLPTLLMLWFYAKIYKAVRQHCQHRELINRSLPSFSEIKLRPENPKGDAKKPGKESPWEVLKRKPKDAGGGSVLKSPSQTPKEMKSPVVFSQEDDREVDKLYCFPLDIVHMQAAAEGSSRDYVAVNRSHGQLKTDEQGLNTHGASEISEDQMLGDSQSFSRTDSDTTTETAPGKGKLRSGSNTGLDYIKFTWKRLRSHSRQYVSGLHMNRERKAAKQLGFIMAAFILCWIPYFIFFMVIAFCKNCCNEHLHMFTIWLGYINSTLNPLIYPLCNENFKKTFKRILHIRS
Chain of Beta-3 adrenergic receptor (P13945 whole entry): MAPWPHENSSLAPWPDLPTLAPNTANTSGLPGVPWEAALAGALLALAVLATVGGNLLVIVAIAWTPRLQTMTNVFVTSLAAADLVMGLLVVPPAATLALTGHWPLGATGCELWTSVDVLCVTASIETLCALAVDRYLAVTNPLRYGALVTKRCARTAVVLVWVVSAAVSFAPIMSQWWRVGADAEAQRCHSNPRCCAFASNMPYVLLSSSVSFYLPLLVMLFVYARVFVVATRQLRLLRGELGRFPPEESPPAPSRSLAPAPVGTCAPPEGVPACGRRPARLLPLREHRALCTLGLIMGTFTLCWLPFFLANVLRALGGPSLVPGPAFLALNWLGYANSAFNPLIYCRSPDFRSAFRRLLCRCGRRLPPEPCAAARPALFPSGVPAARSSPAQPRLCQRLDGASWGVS
Chain of D(3) dopamine receptor (P35462 whole entry): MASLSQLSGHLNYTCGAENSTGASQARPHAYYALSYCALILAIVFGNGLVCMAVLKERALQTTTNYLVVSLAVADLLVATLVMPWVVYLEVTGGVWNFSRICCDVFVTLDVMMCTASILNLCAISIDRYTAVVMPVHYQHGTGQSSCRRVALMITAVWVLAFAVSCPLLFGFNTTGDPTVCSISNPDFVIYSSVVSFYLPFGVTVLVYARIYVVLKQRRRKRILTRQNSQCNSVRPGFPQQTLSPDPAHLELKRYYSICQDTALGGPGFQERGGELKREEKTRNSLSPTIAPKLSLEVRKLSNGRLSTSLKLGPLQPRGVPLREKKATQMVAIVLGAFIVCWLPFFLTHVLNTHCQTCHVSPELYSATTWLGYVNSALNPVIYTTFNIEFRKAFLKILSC

On to `CC1Oc2ccc(I)cc2C=C1[N+](=O)[O-]` (racemic), for which the IC50 at P2Y purinoceptor 6 [1] is 36.8 µM.
For `O=[N+]([O-])C1=Cc2cc(C#Cc3ccc(CO)cc3)ccc2OC1C(F)(F)F` (racemic), at P2Y purinoceptor 6 [2], the concentration for half-maximal inhibition (IC50) amounted to 31.6 µM. For the same compound, the affinity at D(1B) dopamine receptor, expressed as Ki, was 0.6 µM.
Consider `O=C(O)c1ccc(C#Cc2ccc3c(c2)C=C([N+](=O)[O-])C(C(F)(F)F)O3)cc1` (racemic), for which the Activity in [3] was under 30%; in data set [4], under 30%; in [5] it was under 30%; in data set [6], 14%; in the data set on HEK293, 95%.
Regarding `O=[N+]([O-])C1=Cc2cc(I)ccc2OC1C(F)(F)F` (racemic), the IC50 at P2Y purinoceptor 6 [2] stood at 28.7 µM.
For the compound `CC[Si](C#Cc1cccc2c1OC(C(F)(F)F)C([N+](=O)[O-])=C2)(CC)CC` (racemic), the concentration for half-maximal inhibition (IC50) at P2Y purinoceptor 6 [1] turned out to be 0.461 µM; on P2Y purinoceptor 6 [2], 6.15 µM. Besides, the Activity in data set [3] is 39.2%; in data set [4] it was under 30%; in [5] it was under 30%; in the data set with HEK293, 83%. For the same compound, the Ki in data set [7] was 1.1 µM; in [8], 6.4 µM; at Histamine H1 receptor, 3.5 µM; in data set [9], 7.3 µM; in data set [10] it was 4.2 µM.
Consider `O=[N+]([O-])C1=Cc2cc(F)cc(Br)c2OC1C(F)(F)F` (racemic), for which the half-maximal inhibitory concentration (IC50) at P2Y purinoceptor 6 [2] was found to be 14.5 µM.
In the case of `CC[Si](C#Cc1ccc2c(c1)C=C([N+](=O)[O-])C(C(F)(F)F)O2)(CC)CC` (racemic), the Activity in data set [3] is under 30%; in [4] it was under 30%; in data set [5], under 30%; with HEK293, 73%. Further, on P2Y purinoceptor 6 [2], the IC50 is 4.94 µM.
As for `O=[N+]([O-])C1=Cc2c(Cl)cccc2OC1C(F)(F)F` (racemic), the half-maximal inhibitory concentration (IC50) at P2Y purinoceptor 6 [1] was found to be 15.7 µM.
With `FC(F)(F)C1Oc2ccc(Cl)cc2-c2n[nH]nc21` (racemic), the Activity on P2Y purinoceptor 6 [11] (filed as antagonist) is 43%.
Turning to `O=[N+]([O-])C1=Cc2cccc(Cl)c2OC1C(F)(F)F` (racemic), the values for the IC50 on P2Y purinoceptor 6 [1] and on P2Y purinoceptor 6 [2] were 3.69 µM and 15.2 µM, respectively.
In the case of `C[Si](C)(C)C#Cc1ccc2c(c1)C=C([N+](=O)[O-])C(C(F)(F)F)O2` (racemic), the Activity in data set [3] is under 30%; in data set [4], under 30%; in data set [5] it was under 30%; in the data set with HEK293, 58%.
On to `O=[N+]([O-])C1=Cc2ccc(Cl)cc2OC1C(F)(F)F` (racemic), for which the half-maximal inhibitory concentration (IC50) on P2Y purinoceptor 6 [1] worked out at 7.98 µM.
For `CC[Si](C#Cc1cccc2c1C=C([N+](=O)[O-])C(C(F)(F)F)O2)(CC)CC` (racemic), at P2Y purinoceptor 6 [1], the 50% inhibitory concentration (IC50) was determined as 4.77 µM.
On to `O=[N+]([O-])C1=Cc2cc(Cl)ccc2OC1C(F)(F)F` (racemic), for which the IC50 on P2Y purinoceptor 6 [2] was found to be 30.8 µM. The results for the inhibition constant Ki on D(3) dopamine receptor and on D(1B) dopamine receptor were 0.78 µM and 2.79 µM, respectively.
Regarding `O=[N+]([O-])C1=Cc2cc(C#Cc3ccc(Cl)cc3)ccc2OC1C(F)(F)F` (racemic), the IC50 at P2Y purinoceptor 6 [1] amounted to 5.35 µM.
With `O=[N+]([O-])C1=Cc2cc(C#Cc3ccc(F)cc3)ccc2OC1C(F)(F)F` (racemic), the IC50 at P2Y purinoceptor 6 [1] turned out to be 8.86 µM.
Same read-out and setting: under `O=[N+]([O-])C1=Cc2c(I)cccc2OC1C(F)(F)F` (racemic) stands 13.1 µM.
Take `CC[Si](C#Cc1ccc2c(c1)C=C([N+](=O)[O-])C(C1CC1)O2)(CC)CC` (racemic): the Activity at P2Y purinoceptor 6 [11] (filed as antagonist) was 50%.
As to `O=[N+]([O-])C1=Cc2cc(I)ccc2OC1C1CCC1` (racemic), on P2Y purinoceptor 6 [1], the IC50 was 33.1 µM.
Regarding `O=[N+]([O-])C1=Cc2ccccc2OC1C(F)(F)F` (racemic), the IC50 on P2Y purinoceptor 6 [2] turned out to be 185 µM.
For the compound `NC1Cc2ccccc2OC1C(F)(F)F` (racemic), the Activity on P2Y purinoceptor 6 [11] was determined as 0%.
Consider `O=[N+]([O-])C1=Cc2cc(Br)ccc2OC1C(F)(F)F` (racemic), for which, at P2Y purinoceptor 6 [2], the concentration for half-maximal inhibition (IC50) stood at 20.2 µM.
With `O=[N+]([O-])C1=Cc2cc(F)ccc2OC1C(F)(F)F` (racemic), in data set [12], the affinity corresponds to a Ki of 8.6 µM.
`O=[N+]([O-])C1=Cc2cc(F)cc(F)c2OC1C(F)(F)F` (racemic): the results for the IC50 on P2Y purinoceptor 6 [1] and at P2Y purinoceptor 6 [2] were 2.99 µM and 17.8 µM, respectively.
In the case of `O=[N+]([O-])C1=Cc2cccc(I)c2OC1C(F)(F)F` (racemic), the IC50 at P2Y purinoceptor 6 [2] turned out to be 17.6 µM.

For the origin of these results see ChEMBL document CHEMBL5223123, “Synthesis and pharmacological characterization of multiply substituted 2H-chromene derivatives as P2Y6 receptor antagonists” (Bioorg Med Chem Lett, 2022).
